# Experimental data published in patent US6737383B1, “Herbicidal oxadiazolidines” (priority 1999, dated 2004).
# Experiments:
# duck salad = assay: Test B flood test duck salad; type: in vivo, Heteranthera limosa
# In short: (§1)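 Read-out is a visual response score from 0 (no effect) to 10 (complete control), assigned by comparison with untreated controls. Treatment was applied at the 2-leaf stage, and plants stayed in the greenhouse for twelve to sixteen days before scoring.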
# giant foxtail = assay: Test B pre/postemergence giant foxtail; type: in vivo, Setaria faberii
# In short: (§2)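 Herbicidal effect was estimated by eye on a ten-point control scale after plants spent twelve to sixteen days in a greenhouse following soil or foliar treatment. Foliar sprays targeted plants at one to four leaves; all doses were formulated in a non-phytotoxic solvent with surfactant.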
# rice = assay: Test B flood test rice; type: in vivo, Oryza sativa
# In short: as §1
# wheat = assay: Test B pre/postemergence wheat; type: in vivo, Triticum aestivum
# In short: as §2
# rape = assay: Test B pre/postemergence rape; type: in vivo, Brassica napus
# In short: as §2
# purple nutsedge = assay: Test B pre/postemergence purple nutsedge; type: in vivo, Cyperus rotundus
# In short: as §2
# sugar beet = assay: Test B pre/postemergence sugar beet; type: in vivo, Beta vulgaris
# In short: as §2
# bamyardgrass = assay: Test B flood test barnyardgrass; type: in vivo, Echinochloa crus-galli
# In short: as §1
# velvetleaf = assay: Test B pre/postemergence velvetleaf; type: in vivo, Abutilon theophrasti
# In short: as §2
# pigweed = assay: Test B pre/postemergence pigweed; type: in vivo, Amaranthus retroflexus
# In short: as §2
# blackgrass = assay: Test B pre/postemergence blackgrass; type: in vivo, Alopecurus myosuroides
# In short: as §2
# wild oat = assay: Test B pre/postemergence wild oat; type: in vivo, Avena fatua
# In short: as §2
# bedstraw = assay: Test B pre/postemergence bedstraw; type: in vivo, Galium aparine; conditions: Preemergence
# In short: as §2
# soybean = assay: Test B pre/postemergence soybean; type: in vivo, Glycine max
# In short: as §2
# smallflower flatsedge = assay: Test B flood test smallflower flatsedge; type: in vivo, Cyperus difformis
# In short: as §1
# morningglory = assay: Test B pre/postemergence morningglory; type: in vivo, Ipomoea hederacea
# In short: as §2
# [1] = Rate 62 g/ha, flood test species, Pre-emergence, visual evaluation after twelve to sixteen days
# [2] = Rate 125 g/ha, under heading Pre-emergence, flood test species, visual evaluation after twelve to sixteen days
# [3] = Rate 250 g/ha, Pre-emergence (flood test species), scale 0 to 10, 0 is no effect, 10 is complete control
# [4] = Rate 500 g/ha, Pre-emergence section of Table B, 0 to 10 scale (0 no effect, 10 complete control)
# [5] = Postemergence, Rate 62 g/ha, scale 0 to 10, 0 is no effect, 10 is complete control
# [6] = Postemergence, Rate 125 g/ha, scale of 0 to 10 where 0 is no effect and 10 is complete control
# [7] = Postemergence, Rate 250 g/ha, scale of 0 to 10, 0 is no effect, 10 is complete control
# [8] = Postemergence, Rate 500 g/ha, scale of 0 to 10 where 0 is no effect and 10 is complete control
# [9] = Preemergence, Rate 62 g/ha, scale 0 to 10 (0 no effect, 10 complete control)
# [10] = Preemergence, Rate 125 g/ha, scale of 0 to 10 where 0 is no effect and 10 is complete control
# [11] = Preemergence, Rate 250 g/ha, scale 0 to 10 (0 no effect, 10 complete control)
# [12] = Preemergence, Rate 500 g/ha, scale of 0 to 10 where 0 is no effect and 10 is complete control
compound,measurement,setting,value
COCCn1c(=O)on(C(=O)N(c2ccccc2)C(C)C)c1=O [Compound 631],"Plant response rating, Ducksalad (0 to 10 scale, 0 is no effect, 10 is complete control)",duck salad; [1],0
same,"Ducksalad plant response rating (0 to 10 scale, 0 is no effect, 10 is complete control)",duck salad; [2],0
same,Ducksalad plant response rating,duck salad; [3],0
same,Ducksalad plant response rating,duck salad; [4],0
same,"Plant response rating, Giant foxtail",giant foxtail; [5],8
same,"Plant response rating, Giant foxtail",giant foxtail; [6],9
same,Giant foxtail plant response rating,giant foxtail; [7],9
same,"Plant response rating, Giant foxtail",giant foxtail; [8],9
same,Giant foxtail plant response rating,giant foxtail; [9],9
same,Giant foxtail plant response rating,giant foxtail; [10],9
same,"Plant response rating, Giant foxtail",giant foxtail; [11],10
same,"Plant response rating, Giant foxtail",giant foxtail; [12],10
same,"Plant response rating, Rice (0 to 10 scale, 0 is no effect, 10 is complete control)",rice; [1],0
same,"Rice plant response rating (0 to 10 scale, 0 is no effect, 10 is complete control)",rice; [2],0
same,Rice plant response rating,rice; [3],0
same,Rice plant response rating,rice; [4],0
same,"Plant response rating, Wheat",wheat; [5],0
same,"Plant response rating, Wheat",wheat; [6],2
same,Wheat plant response rating,wheat; [7],6
same,Wheat plant response rating,wheat; [9],0
same,Wheat plant response rating,wheat; [10],3
same,"Plant response rating, Wheat",wheat; [11],8
same,"Plant response rating, Wheat",wheat; [12],9
same,"Plant response rating, Rape",rape; [5],0
same,"Plant response rating, Rape",rape; [6],0
same,Rape plant response rating,rape; [7],2
same,"Plant response rating, Rape",rape; [8],2
same,Rape plant response rating,rape; [9],0
same,Rape plant response rating,rape; [10],0
same,"Plant response rating, Rape",rape; [11],6
same,"Plant response rating, Rape",rape; [12],8
same,"Plant response rating, Nutsedge",purple nutsedge; [5],0
same,"Plant response rating, Nutsedge",purple nutsedge; [6],0
same,Nutsedge plant response rating,purple nutsedge; [7],0
same,Nutsedge plant response rating,purple nutsedge; [9],0
same,Nutsedge plant response rating,purple nutsedge; [10],4
same,"Plant response rating, Nutsedge",purple nutsedge; [11],4
same,"Plant response rating, Nutsedge",purple nutsedge; [12],8
same,"Plant response rating, Sugarbeets",sugar beet; [5],0
same,"Plant response rating, Sugarbeets",sugar beet; [6],0
same,Sugarbeets plant response rating,sugar beet; [7],0
same,Sugarbeets plant response rating,sugar beet; [9],0
same,Sugarbeets plant response rating,sugar beet; [10],3
same,"Plant response rating, Sugarbeets",sugar beet; [11],4
same,"Plant response rating, Sugarbeets",sugar beet; [12],8
same,"Plant response rating, Barnyardgrass (0 to 10 scale, 0 is no effect, 10 is complete control)",bamyardgrass; [1],0
same,"Barnyardgrass plant response rating (0 to 10 scale, 0 is no effect, 10 is complete control)",bamyardgrass; [2],1
same,Barnyardgrass plant response rating,bamyardgrass; [3],4
same,Barnyardgrass plant response rating,bamyardgrass; [4],4
same,"Plant response rating, Velvetleaf",velvetleaf; [5],4
same,"Plant response rating, Velvetleaf",velvetleaf; [6],4
same,Velvetleaf plant response rating,velvetleaf; [7],7
same,Velvetleaf plant response rating,velvetleaf; [9],6
same,Velvetleaf plant response rating,velvetleaf; [10],7
same,"Plant response rating, Velvetleaf",velvetleaf; [11],7
same,"Plant response rating, Velvetleaf",velvetleaf; [12],9
same,"Plant response rating, Redroot pigweed",pigweed; [5],0
same,"Plant response rating, Redroot pigweed",pigweed; [6],0
same,Redroot pigweed plant response rating,pigweed; [9],7
same,Redroot pigweed plant response rating,pigweed; [10],9
same,"Plant response rating, Redroot pigweed",pigweed; [11],10
same,"Plant response rating, Redroot pigweed",pigweed; [12],10
same,"Plant response rating, Blackgrass",blackgrass; [5],1
same,"Plant response rating, Blackgrass",blackgrass; [6],8
same,Blackgrass plant response rating,blackgrass; [7],6
same,"Plant response rating, Blackgrass",blackgrass; [8],9
same,Blackgrass plant response rating,blackgrass; [9],6
same,Blackgrass plant response rating,blackgrass; [10],7
same,"Plant response rating, Blackgrass",blackgrass; [11],9
same,"Plant response rating, Blackgrass",blackgrass; [12],10
same,"Plant response rating, Wild oats",wild oat; [5],0
same,"Plant response rating, Wild oats",wild oat; [6],0
same,Wild oats plant response rating,wild oat; [7],1
same,Wild oats plant response rating,wild oat; [9],0
same,Wild oats plant response rating,wild oat; [10],2
same,"Plant response rating, Wild oats",wild oat; [11],8
same,"Plant response rating, Wild oats",wild oat; [12],9
same,Bedstraw plant response rating,"bedstraw; Rate 62 g/ha, scale 0 to 10 (0 no effect, 10 complete control)",0
same,Bedstraw plant response rating,"bedstraw; Rate 125 g/ha, scale of 0 to 10 where 0 is no effect and 10 is complete control",0
same,"Plant response rating, Bedstraw","bedstraw; Rate 250 g/ha, scale 0 to 10 (0 no effect, 10 complete control)",0
same,"Plant response rating, Soybean",soybean; [5],5
same,"Plant response rating, Soybean",soybean; [6],5
same,Soybean plant response rating,soybean; [7],8
same,Soybean plant response rating,soybean; [9],2
same,Soybean plant response rating,soybean; [10],5
same,"Plant response rating, Soybean",soybean; [11],9
same,"Plant response rating, Soybean",soybean; [12],9
same,"Plant response rating, S. Flatsedge (0 to 10 scale, 0 is no effect, 10 is complete control)",smallflower flatsedge; [1],0
same,"S. Flatsedge plant response rating (0 to 10 scale, 0 is no effect, 10 is complete control)",smallflower flatsedge; [2],0
same,S. Flatsedge plant response rating,smallflower flatsedge; [3],0
same,S. Flatsedge plant response rating,smallflower flatsedge; [4],0
same,"Plant response rating, Morningglory",morningglory; [5],0
same,"Plant response rating, Morningglory",morningglory; [6],4
same,Morningglory plant response rating,morningglory; [7],4
same,"Plant response rating, Morningglory",morningglory; [8],10
same,Morningglory plant response rating,morningglory; [9],0
same,Morningglory plant response rating,morningglory; [10],0
same,"Plant response rating, Morningglory",morningglory; [11],4
same,"Plant response rating, Morningglory",morningglory; [12],7
